Measured values: patent publication US11578056B2, “Solid forms comprising (S)-2-(2,6-dioxopiperidin-3-yl)-4-((2-fluoro-4-((3-morpholinoazetidin-1-yl)methyl)benzyl)amino)isoindoline-1,3-dione and salts thereof, and compositions comprising and methods of using the same” (Celgene Corporation, priority 2019, dated 2023)

Tests used:
Test in all cases: Hematological cell line viability/apoptosis flow cytometry assay
Format in all cases: cell-based
OCI-LY10 cell line = conditions: OCI-LY10 (DLBCL ABC); 120 h
Procedure, shortened: (§1)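 Flow cytometry read-out: Annexin V plus DRAQ7 after 120 h exposure to 0.00015–10 μM compound, 0.1% DMSO final. Viable cells as % of DMSO fitted by variable-slope regression for IC50/Emax; % apoptotic cells (Annexin V+) fitted for EC50/Ymax; AUC from both curves.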

L-591 cell line = conditions: L-591 (HL), 120 h
Procedure, shortened: as §1

KOPN-8 cell line = conditions: KOPN-8 (ALL), 120 h
Procedure, shortened: as §1

HNT-34 cell line = conditions: HNT-34 (AML), 120 h
Procedure, shortened: as §1

KARPAS-1106P cell line = conditions: KARPAS-1106P (DLBCL PMBL); 120 h
Procedure, shortened: as §1

NU-DHL-1 cell line = conditions: NU-DHL-1 (DLBCL GCB); 120 h
Procedure, shortened: as §1

VAL cell line = conditions: VAL (DLBCL), 120 h
Procedure, shortened: as §1

RC-K8 cell line = conditions: RC-K8 (DLBCL ABC); 120 h
Procedure, shortened: as §1

SU-DHL-10 cell line = conditions: SU-DHL-10 (DLBCL GCB); 120 h
Procedure, shortened: as §1

RIVA cell line = conditions: RIVA (DLBCL ABC), 120 h
Procedure, shortened: as §1

CARNAVAL cell line = conditions: CARNAVAL (DLBCL), 120 h
Procedure, shortened: as §1

TMD8 cell line = conditions: TMD8 (DLBCL ABC); 120 h
Procedure, shortened: as §1

OCI-LY18 cell line = conditions: OCI-LY18 (DLBCL); 120 h
Procedure, shortened: as §1

SMILES: O=C1CC[C@H](N2C(=O)c3cccc(NCc4ccc(CN5CC(N6CCOCC6)C5)cc4F)c3C2=O)C(=O)N1 [Compound 1, (S)-2-(2,6-dioxopiperidin-3-yl)-4-((2-fluoro-4-((3-morpholinoazetidin-1-yl)methyl)benzyl)amino)isoindoline-1,3-dione]
- % Viable Cells AUC (OCI-LY10 cell line): 125.3
- % Viable Cells Emax (OCI-LY10 cell line): 10.16%
- Apoptosis AUC (OCI-LY10 cell line): 188.9
- Apoptosis Ymax (OCI-LY10 cell line): 22.31%
- % Viable Cells AUC (L-591 cell line): 334.2
- % Viable Cells Emax (L-591 cell line): 34.6%
- Apoptosis AUC (L-591 cell line): 45.59
- Apoptosis Ymax (L-591 cell line): 20.0%
- EC50 (L-591 cell line): 1520 nM
- IC50 (L-591 cell line; read-out: % Viable Cells IC50): 0.3 nM
- EC50 (KOPN-8 cell line; Homo sapiens): 726000 nM
- IC50 (KOPN-8 cell line; Homo sapiens, read-out: % Viable Cells IC50): 41.8 nM
- % Viable Cells AUC (KOPN-8 cell line): 490.2
- % Viable Cells Emax (KOPN-8 cell line): 38.3%
- Apoptosis AUC (KOPN-8 cell line): 14.95
- Apoptosis Ymax (KOPN-8 cell line): 5.00%
- % Viable Cells AUC (HNT-34 cell line): 353
- % Viable Cells Emax (HNT-34 cell line): 20.47%
- Apoptosis AUC (HNT-34 cell line): 130.1
- Apoptosis Ymax (HNT-34 cell line): 44.33%
- EC50 (HNT-34 cell line): 876 nM
- IC50 (HNT-34 cell line; read-out: % Viable Cells IC50): 26 nM
- % Viable Cells AUC (KARPAS-1106P cell line): 22.22
- % Viable Cells Emax (KARPAS-1106P cell line): 0.1698%
- Apoptosis AUC (KARPAS-1106P cell line): 885.2
- Apoptosis Ymax (KARPAS-1106P cell line): 97.08%
- % Viable Cells AUC (NU-DHL-1 cell line): 12.37
- % Viable Cells Emax (NU-DHL-1 cell line): 0.4919%
- Apoptosis AUC (NU-DHL-1 cell line): 981.8
- Apoptosis Ymax (NU-DHL-1 cell line): 99.17%
- % Viable Cells AUC (VAL cell line): 14.62
- % Viable Cells Emax (VAL cell line): 0.9632%
- Apoptosis AUC (VAL cell line): 936.7
- Apoptosis Ymax (VAL cell line): 95.68%
- EC50 (VAL cell line): 0.605 nM
- IC50 (VAL cell line; read-out: % Viable Cells IC50): 0.57 nM
- % Viable Cells AUC (RC-K8 cell line): 115.7
- % Viable Cells Emax (RC-K8 cell line): 10.06%
- Apoptosis AUC (RC-K8 cell line): 349.2
- Apoptosis Ymax (RC-K8 cell line): 26.31%
- % Viable Cells AUC (SU-DHL-10 cell line): 10.36
- % Viable Cells Emax (SU-DHL-10 cell line): 0.6716%
- Apoptosis AUC (SU-DHL-10 cell line): 903
- Apoptosis Ymax (SU-DHL-10 cell line): 92.27%
- % Viable Cells AUC (RIVA cell line): 452.6
- % Viable Cells Emax (RIVA cell line): 36.65%
- Apoptosis AUC (RIVA cell line): 242.8
- Apoptosis Ymax (RIVA cell line): 27.92%
- EC50 (RIVA cell line): 17.7 nM
- IC50 (RIVA cell line; read-out: % Viable Cells IC50): 114 nM
- % Viable Cells AUC (CARNAVAL cell line): 110.6
- % Viable Cells Emax (CARNAVAL cell line): 7.134%
- Apoptosis AUC (CARNAVAL cell line): 708.7
- Apoptosis Ymax (CARNAVAL cell line): 77.84%
- EC50 (CARNAVAL cell line): 152 nM
- IC50 (CARNAVAL cell line; read-out: % Viable Cells IC50): 9.12 nM
- % Viable Cells AUC (TMD8 cell line): 4.187
- % Viable Cells Emax (TMD8 cell line): 0.245%
- Apoptosis AUC (TMD8 cell line): 963.3
- Apoptosis Ymax (TMD8 cell line): 97.2%
- % Viable Cells AUC (OCI-LY18 cell line): 1.965
- % Viable Cells Emax (OCI-LY18 cell line): 0.05973%
- Apoptosis AUC (OCI-LY18 cell line): 965.2
- Apoptosis Ymax (OCI-LY18 cell line): 97.44%
